From patent US5637319A, “Controlled-release preparations” (priority 1995, dated 1997)

Tests used:
[1] = set-up: species or system beagle dog; settings: dog, in vivo
Description: The peak time, Tmax, when the plasma 5-FU level reaches to its maximum level is used as a parameter for estimating the release time of drug in the GI tract after oral administration. […] According to the report of Anderson ([…]), for the dog, gastric emptying is 3-5 h, small intestine transit time is about 1 h and colonic transit time is 10-12 hr. On the other hand, Mizuta et al. (1989) reported that the small intestinal transit time in beagle dog is 3.0±1.4 h. Additionally, the transit of the test preparation was monitored by a direct examination of the dog intestine by abdominal incision. In this study, the delivery of these preparations to the ascending colon at 4 hr after administration was confirmed. In addition, to estimate the colon arrival time in the beagle dogs, sulfasalazine which is a pro-drug of 5ASA and is cleaved to sulfapyridine and 5ASA in the colon by azo-reductase of intestinal microflora was administered to the dogs. Sulfapyridine starts to appear in the blood circulation at 4 hr after administration and reaches to its maximum concentration at 10-12 hr (J. Pharm. Pharmacol., 1995 in press). Accordingly, colon arrival time has been estimated to be 4 hr in our beagle dogs.

[2] = Serum cisplatin concentration after oral administration to rabbits; format: in vivo, rabbit; settings: sustained-release preparation
Description: The effects of the pore number and the amount of gel-forming polymer on the release profiles of cisplatin was confirmed in the in vivo study after oral administration of the preparations to rabbits using a reference preparation, cisplatin solution, at 20 mg/kg. […] The absorption rate of cisplatin is so rapid that the serum peak level appears within 1 hr.
In case of preparations of which drug release mechanism is based on the intestinal pressure, drug release profiles of the preparations in Examples 4, 5, 6, 7 and 8 cannot be measured by in vitro release experiments. In addition, in the case of sustained-release preparations in Examples 9, 10 and 11, the long-acting efficiency must be confirmed in the in vivo animal study after oral administration. Therefore, in vivo pharmacokinetics study was performed using beagle dogs and rabbits. In the in vivo study, the preparations of the Examples except examples 6, 10 and 11 were administered to dogs and rabbits, respectively. […] These plasma and serum samples were immediately frozen in a deep freezer at -20° C. until analyzed.
Plasma 5ASA and 5-FU concentrations were measured by an HPLC method after extraction of the drug from the plasma sample. The serum cisplatin level was determined by analyzing for platinum by atomic absorption spectrophotometry. The plasma calcitonin level was determined by an ELISA method.

[3] = Release study of cisplatin capsules with different pore number and amount of gel-forming polymer (FIGS. 1a-c, 2a-c); format: physicochemical
Excerpt: The release rate of extremely hydrophilic low-molecular weight drug such as cisplatin from the sustained-release preparation is affected by the following three factors; (1) pore number made on the water-insoluble polymer, (2) pore size and (3) amount of gel-forming material inside the preparation. From the standpoint of mechanical operation of opening many uniform pores, the pore size was fixed to be 800 μm. Under the fixed pore size condition, the effects of the pore number was at first examined and the release patterns of cisplatin from the preparations are shown in FIGS. 1a, b and c. […] The release study data are summarized with respect to the effect of the amount of gel-forming polymer and the results are shown in FIGS. 2a, b and c.
The test was performed according to the procedure of the paddle method (JPXII). A dissolution media employed were the 1st solution (JPXII, pH 1.2) and the 2nd solution (JPXII, pH 6.8). Nine hundred ml of the dissolution medium was used at 37°±0.1° C. at 100rpm. Test capsule was put into a stainless sinker. After being enclosed in the sinker, the capsule was put into 900 ml of the 1st solution maintained at 37° C. The shaft was then placed in the fluid at 37° C. and the paddle was rotated at 100 rpm. To simulate the transit from gastric to intestinal pH, samples of 1st solution were replaced one hour later with the 2nd solution. The release profile of 5-FU was estimated by measuring the appearance of the drug by HPLC method. The cisplatin concentration was estimated by analyzing for platinum by atomic absorption spectrophotometry.

[4] = after sulfasalazine to dogs; J. Pharm. Pharmacol., 1995 in press; cited from earlier work
[5] = dog, po
Description: FIG. 18. Relationship between the thickness of EC layer of intestinal pressure controlled-release capsules and plasma fluorescein Tmax after oral administration to beagle dogs.

[6] = tested on: blood total leukocyte (BTL) count; test: Pharmacodynamic study: blood total leukocyte (BTL) count after oral administration of rhG-CSF capsule to beagle dogs; format: in vivo, beagle dog; settings: 25 μg/kg oral, three dogs
Description: The test capsule, a preparation of Example 6, was orally administered to beagle dogs. At 30 min before drug administration, 0.6 ml of the blank blood sample was removed from the dog jugular vein. After administration, 0.1 ml of blood samples were collected at 10, 24, 36, 48, 60, 72 and 96 h. […] of the blood sample was used for blood total leukocyte (BTL) count. The BTL count was performed by microcell counter CC-180A (Sysmex, Toa Medical Electronics). The BTL count is expressed as a relative value, which is obtained by the respective control BTL count, namely the pre-dosing BTL count.

O=C(O)c1cc(/N=N/c2ccc(S(=O)(=O)Nc3ccccn3)cc2)ccc1O [sulfasalazine]
colon arrival time [1]: 4 h

N.N.[Cl][Pt][Cl] [cisplatin]
serum cisplatin levels, effect of pore number ([2]; pore number 20 to 30, carbopol 25 mg (FIG. 4)): significantly increases as the pore number increases from 20 to 30
serum cisplatin level vs. time curves, effect of amount of gel-forming polymer ([2]; pore number 30 (FIG. 5)): there is not a significant difference
release rate of cisplatin, effect of pore number ([3]; gel-forming polymer 100 mg): the pore number did not affect the release rate of cisplatin any more
effect of increase of the amount of gel-forming polymer on release ([3]; pore number 20): the effect of the increase of the amount of gel-forming polymer did not appear
release rate of cisplatin, effect of pore number ([3]; pore number 20 to 30, gel-forming polymer 25 mg and 50 mg): the release rate of cisplatin increases
release rate of cisplatin, effect of amount of gel-forming polymer ([3]; pore number 30 and 60, gel-forming polymer 25 mg to 50 mg): the release rate of cisplatin decreases
prolonged effect of pore number ([3]; pore number 30 to 60, gel-forming polymer 25 mg and 50 mg): prolonged effect was not observed

Nc1ccc(S(=O)(=O)Nc2ccccn2)cc1 [Sulfapyridine, sulfapyridine]
time at which sulfapyridine starts to appear in the blood circulation [4]: 4 h

O=C1OC2(c3ccc(O)cc3Oc3cc(O)ccc32)c2ccccc21 [fluorescein]
capsule thickness vs. in vivo Tmax [5]: good corelationship between the capsule thickness and the in vivo Tmax

B1: rhG-CSF: recombinant human granulocyte colony-stimulating factor, given orally as the capsule of Example 6 (protein, UniProt P09919 31-207, looked up)
Granulocyte …: TPLGPASSLPQSFLLKCLEQVRKIQGDGAALQEKLVSECATYKLCHPEELVLLGHSLGIPWAPLSSCPSQALQLAGCLSQLHSGLFLYQGLLQALEGISPELGPTLDTLQLDVADFATTIWQQMEELGMAPALQPTQGAMPAFASAFQRRAGGVLVASHLQSFLEVSYRVLRHLAQP
BTL count relative to pre-dose level [6]: 1.3 folds of pre-dose level
time at which BTL count starts to increase [6]: 10 h
BTL count return to the normal level ([6]; end of the experiment): 96 h
